Assay results reported in ChEMBL document CHEMBL4396905, “Design, synthesis and in vitro evaluation of 6-amide-2-aryl benzoxazole/benzimidazole derivatives against tumor cells by inhibiting VEGFR-2 kinase” (Eur J Med Chem, 2019).
pIC50: −log10 of the molar value. The source made the active and inactive calls. The rule behind the calls is not given here.

biological target: T1, Vascular endothelial growth factor receptor 2 (Homo sapiens, UniProt P35968); assay: Inhibition of VEGFR2 (unknown origin) using Poly (Glu, Tyr) 4:1 as substrate preincubated with substrate followed by enzyme challenge for 1 hr by ELISA; conditions: not given
T1 sequence (P35968 whole entry): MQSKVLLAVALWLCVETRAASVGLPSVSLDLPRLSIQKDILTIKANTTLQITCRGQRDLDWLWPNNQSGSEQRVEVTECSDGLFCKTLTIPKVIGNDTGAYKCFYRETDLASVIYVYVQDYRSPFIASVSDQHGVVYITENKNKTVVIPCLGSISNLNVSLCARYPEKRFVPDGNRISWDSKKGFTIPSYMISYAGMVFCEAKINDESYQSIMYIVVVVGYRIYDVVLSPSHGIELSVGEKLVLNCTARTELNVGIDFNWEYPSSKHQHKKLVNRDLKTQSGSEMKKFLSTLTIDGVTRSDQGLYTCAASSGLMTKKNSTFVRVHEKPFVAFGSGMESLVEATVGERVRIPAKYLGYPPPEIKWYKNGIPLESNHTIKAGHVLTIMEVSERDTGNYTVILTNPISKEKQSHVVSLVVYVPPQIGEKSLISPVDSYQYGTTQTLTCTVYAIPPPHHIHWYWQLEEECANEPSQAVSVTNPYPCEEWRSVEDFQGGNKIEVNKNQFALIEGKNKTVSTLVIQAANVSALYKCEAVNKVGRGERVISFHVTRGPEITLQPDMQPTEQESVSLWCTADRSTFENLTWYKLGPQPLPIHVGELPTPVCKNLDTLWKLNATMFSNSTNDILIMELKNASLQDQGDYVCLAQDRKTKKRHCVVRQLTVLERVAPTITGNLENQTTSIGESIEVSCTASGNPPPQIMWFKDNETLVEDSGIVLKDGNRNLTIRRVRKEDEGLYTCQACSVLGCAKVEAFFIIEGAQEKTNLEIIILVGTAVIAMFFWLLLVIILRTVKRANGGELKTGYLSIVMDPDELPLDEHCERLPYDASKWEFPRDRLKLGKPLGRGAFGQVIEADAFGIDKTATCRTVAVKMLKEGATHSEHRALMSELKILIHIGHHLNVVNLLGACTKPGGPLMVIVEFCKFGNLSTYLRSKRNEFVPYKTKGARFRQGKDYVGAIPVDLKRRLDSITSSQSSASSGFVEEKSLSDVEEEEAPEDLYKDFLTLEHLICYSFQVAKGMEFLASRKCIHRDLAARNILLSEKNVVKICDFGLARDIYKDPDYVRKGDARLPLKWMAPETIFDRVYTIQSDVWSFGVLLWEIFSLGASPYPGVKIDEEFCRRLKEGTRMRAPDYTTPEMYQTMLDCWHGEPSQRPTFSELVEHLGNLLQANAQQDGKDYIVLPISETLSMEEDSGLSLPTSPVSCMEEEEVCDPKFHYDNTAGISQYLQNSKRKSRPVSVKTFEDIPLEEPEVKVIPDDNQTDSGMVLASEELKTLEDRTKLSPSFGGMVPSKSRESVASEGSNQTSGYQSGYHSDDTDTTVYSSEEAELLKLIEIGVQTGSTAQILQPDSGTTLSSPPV

pIC50	Structure (SMILES)
6.45	COc1cc(CC(=O)Nc2ccc3oc(-c4ccccc4)nc3c2)cc(OC)c1OC
7.29	COc1ccc(CC(=O)Nc2ccc3[nH]c(-c4ccc(Cl)cc4)nc3c2)cc1

biological target: Epidermal growth factor receptor (Homo sapiens) (UniProt P00533); assay: Inhibition of EGFR (unknown origin) using Poly (Glu, Tyr) 4:1 as substrate at 1 uM preincubated with substrate followed by enzyme challenge for 1 hr by ELISA relative to control; conditions: not given
Sequence (P00533 whole entry): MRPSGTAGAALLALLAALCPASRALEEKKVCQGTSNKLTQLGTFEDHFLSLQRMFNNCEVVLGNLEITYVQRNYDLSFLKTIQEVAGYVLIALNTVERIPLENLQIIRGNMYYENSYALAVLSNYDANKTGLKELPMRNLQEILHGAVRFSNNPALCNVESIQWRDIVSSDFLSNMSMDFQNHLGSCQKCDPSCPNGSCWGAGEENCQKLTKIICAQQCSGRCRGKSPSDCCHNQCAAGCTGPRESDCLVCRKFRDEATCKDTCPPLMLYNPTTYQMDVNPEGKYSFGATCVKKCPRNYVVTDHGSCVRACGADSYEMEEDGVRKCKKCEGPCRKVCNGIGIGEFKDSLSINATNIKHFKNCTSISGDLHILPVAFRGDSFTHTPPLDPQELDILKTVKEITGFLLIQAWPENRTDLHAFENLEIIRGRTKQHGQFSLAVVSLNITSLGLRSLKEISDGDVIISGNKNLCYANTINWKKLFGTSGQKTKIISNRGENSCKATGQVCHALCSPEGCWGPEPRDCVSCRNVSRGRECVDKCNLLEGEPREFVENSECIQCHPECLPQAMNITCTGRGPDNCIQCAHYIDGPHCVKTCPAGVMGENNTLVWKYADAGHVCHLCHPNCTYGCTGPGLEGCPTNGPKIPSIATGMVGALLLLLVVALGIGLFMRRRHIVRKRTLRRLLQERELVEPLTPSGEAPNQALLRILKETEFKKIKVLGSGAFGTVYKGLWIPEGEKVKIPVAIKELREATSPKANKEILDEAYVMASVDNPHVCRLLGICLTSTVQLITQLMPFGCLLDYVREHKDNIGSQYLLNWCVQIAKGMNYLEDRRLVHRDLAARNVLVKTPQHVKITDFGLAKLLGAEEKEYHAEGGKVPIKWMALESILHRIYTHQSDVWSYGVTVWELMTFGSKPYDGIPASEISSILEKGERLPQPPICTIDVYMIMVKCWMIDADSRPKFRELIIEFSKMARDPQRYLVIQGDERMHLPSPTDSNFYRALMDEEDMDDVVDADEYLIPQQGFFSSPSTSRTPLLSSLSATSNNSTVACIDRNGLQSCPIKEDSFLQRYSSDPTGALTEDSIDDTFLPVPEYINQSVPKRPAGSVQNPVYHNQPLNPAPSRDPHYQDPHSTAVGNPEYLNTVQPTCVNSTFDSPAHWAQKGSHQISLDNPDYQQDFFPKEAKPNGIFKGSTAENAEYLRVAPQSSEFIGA

inhibition [%]	Structure (SMILES)
47.3	COc1cc(CC(=O)Nc2ccc3oc(-c4ccccc4)nc3c2)cc(OC)c1OC
58.3	COc1ccc(CC(=O)Nc2ccc3[nH]c(-c4ccc(Cl)cc4)nc3c2)cc1

test system: HUVEC; assay: Antiproliferative activity against human HUVEC cells expressing VEGFR2 assessed as reduction in cell growth incubated for 48 hrs by MTT assay; type: functional, cell-based; conditions: not given

Structure (SMILES)	pIC50
COc1cc(CC(=O)Nc2ccc3oc(-c4ccccc4)nc3c2)cc(OC)c1OC	4.72
COc1ccc(CC(=O)Nc2ccc3[nH]c(-c4ccc(Cl)cc4)nc3c2)cc1	5.83

test system: HepG2; assay: Antiproliferative activity against human HepG2 cells expressing VEGFR2 assessed as reduction in cell growth incubated for 48 hrs by MTT assay; type: functional, cell-based; conditions: HepG2, 48 h

pIC50	Structure (SMILES)
4.58	COc1cc(CC(=O)Nc2ccc3oc(-c4ccccc4)nc3c2)cc(OC)c1OC
5.59	COc1ccc(CC(=O)Nc2ccc3[nH]c(-c4ccc(Cl)cc4)nc3c2)cc1

test system: A549; assay: Antiproliferative activity against human A549 cells expressing EGFR assessed as reduction in cell growth incubated for 48 hrs by MTT assay; type: functional, cell-based; conditions: A549, 48 h

pIC50	Structure (SMILES)
4.03	COc1cc(CC(=O)Nc2ccc3oc(-c4ccccc4)nc3c2)cc(OC)c1OC
4.13	COc1ccc(CC(=O)Nc2ccc3[nH]c(-c4ccc(Cl)cc4)nc3c2)cc1

test system: MDA-MB-231; assay: Antiproliferative activity against human MDA-MB-231 cells expressing EGFR assessed as reduction in cell growth incubated for 48 hrs by MTT assay; type: functional, cell-based; conditions: MDA-MB-231, 48 h

pIC50	Structure (SMILES)
4.10	COc1cc(CC(=O)Nc2ccc3oc(-c4ccccc4)nc3c2)cc(OC)c1OC
4.24	COc1ccc(CC(=O)Nc2ccc3[nH]c(-c4ccc(Cl)cc4)nc3c2)cc1

biological target: Platelet-derived growth factor receptor alpha (Homo sapiens) (UniProt P16234); assay: Inhibition of PDGFRalpha (unknown origin) at 1 uM; conditions: not given
Sequence (P16234 whole entry): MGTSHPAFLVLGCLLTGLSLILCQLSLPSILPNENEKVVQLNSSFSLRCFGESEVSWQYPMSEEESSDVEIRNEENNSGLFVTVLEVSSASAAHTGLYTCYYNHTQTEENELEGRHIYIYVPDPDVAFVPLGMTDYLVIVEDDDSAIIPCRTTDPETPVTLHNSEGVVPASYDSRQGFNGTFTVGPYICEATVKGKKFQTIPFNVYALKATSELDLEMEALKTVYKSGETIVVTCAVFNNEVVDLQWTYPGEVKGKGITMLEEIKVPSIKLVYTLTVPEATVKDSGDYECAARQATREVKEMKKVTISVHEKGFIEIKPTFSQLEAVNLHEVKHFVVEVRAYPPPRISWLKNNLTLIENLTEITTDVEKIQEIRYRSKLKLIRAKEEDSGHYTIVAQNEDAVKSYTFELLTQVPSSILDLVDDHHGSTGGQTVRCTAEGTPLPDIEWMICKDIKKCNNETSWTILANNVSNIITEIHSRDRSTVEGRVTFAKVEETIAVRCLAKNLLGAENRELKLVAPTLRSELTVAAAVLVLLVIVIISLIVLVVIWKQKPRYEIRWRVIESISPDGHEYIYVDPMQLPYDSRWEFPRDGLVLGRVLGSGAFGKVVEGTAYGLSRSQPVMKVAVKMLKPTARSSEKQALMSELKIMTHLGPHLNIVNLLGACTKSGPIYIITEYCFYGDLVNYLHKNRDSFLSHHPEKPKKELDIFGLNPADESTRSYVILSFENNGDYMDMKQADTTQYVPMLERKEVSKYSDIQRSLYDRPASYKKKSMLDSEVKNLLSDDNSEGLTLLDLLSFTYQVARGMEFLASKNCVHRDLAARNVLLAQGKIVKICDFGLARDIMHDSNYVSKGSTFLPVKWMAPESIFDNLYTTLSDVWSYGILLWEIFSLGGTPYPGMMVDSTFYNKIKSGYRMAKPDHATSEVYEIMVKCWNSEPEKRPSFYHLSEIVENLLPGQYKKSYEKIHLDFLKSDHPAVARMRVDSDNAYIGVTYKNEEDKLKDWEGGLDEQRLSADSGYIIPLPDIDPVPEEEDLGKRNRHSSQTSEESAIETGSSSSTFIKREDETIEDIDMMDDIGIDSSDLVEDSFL

inhibition [%]	Structure (SMILES)
-3.5	COc1ccc(CC(=O)Nc2ccc3[nH]c(-c4ccc(Cl)cc4)nc3c2)cc1

biological target: Platelet-derived growth factor receptor beta (Homo sapiens) (UniProt P09619); assay: Inhibition of PDGFRbeta (unknown origin) at 1 uM; conditions: not given
Sequence (P09619 whole entry): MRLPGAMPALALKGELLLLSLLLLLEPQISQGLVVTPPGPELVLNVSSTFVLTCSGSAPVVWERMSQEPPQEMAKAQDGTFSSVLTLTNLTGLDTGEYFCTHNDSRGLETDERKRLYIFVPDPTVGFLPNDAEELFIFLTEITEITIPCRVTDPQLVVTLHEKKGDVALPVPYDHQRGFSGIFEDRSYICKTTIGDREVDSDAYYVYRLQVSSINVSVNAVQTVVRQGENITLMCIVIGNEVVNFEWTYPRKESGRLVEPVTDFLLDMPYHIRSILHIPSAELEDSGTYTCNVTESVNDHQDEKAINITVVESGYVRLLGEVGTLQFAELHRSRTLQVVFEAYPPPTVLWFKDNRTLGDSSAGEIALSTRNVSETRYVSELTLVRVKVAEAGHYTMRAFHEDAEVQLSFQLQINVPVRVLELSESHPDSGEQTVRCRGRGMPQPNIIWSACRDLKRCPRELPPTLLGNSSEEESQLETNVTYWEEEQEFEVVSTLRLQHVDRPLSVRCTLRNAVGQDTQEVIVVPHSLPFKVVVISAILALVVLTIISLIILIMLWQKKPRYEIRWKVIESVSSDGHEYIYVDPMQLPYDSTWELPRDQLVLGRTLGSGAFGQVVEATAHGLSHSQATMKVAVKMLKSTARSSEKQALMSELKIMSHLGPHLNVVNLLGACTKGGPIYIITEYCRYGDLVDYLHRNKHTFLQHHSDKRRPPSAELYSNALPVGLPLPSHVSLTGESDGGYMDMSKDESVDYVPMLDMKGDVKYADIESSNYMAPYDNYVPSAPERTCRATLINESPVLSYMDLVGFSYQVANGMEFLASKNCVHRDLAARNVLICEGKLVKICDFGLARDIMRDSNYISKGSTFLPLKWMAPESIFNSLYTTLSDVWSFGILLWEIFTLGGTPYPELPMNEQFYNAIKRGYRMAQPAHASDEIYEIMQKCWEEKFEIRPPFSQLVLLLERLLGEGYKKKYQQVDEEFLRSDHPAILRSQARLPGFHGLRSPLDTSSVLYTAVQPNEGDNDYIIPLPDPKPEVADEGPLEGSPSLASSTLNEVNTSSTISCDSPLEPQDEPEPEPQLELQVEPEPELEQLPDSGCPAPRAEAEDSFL

inhibition [%]	Structure (SMILES)
2.7	COc1ccc(CC(=O)Nc2ccc3[nH]c(-c4ccc(Cl)cc4)nc3c2)cc1

biological target: Vascular endothelial growth factor receptor 1 (Homo sapiens) (UniProt P17948); assay: Inhibition of FLT1 (unknown origin) at 1 uM; conditions: not given

inhibition [%]	Structure (SMILES)
26.1	COc1ccc(CC(=O)Nc2ccc3[nH]c(-c4ccc(Cl)cc4)nc3c2)cc1

biological target: Vascular endothelial growth factor receptor 3 (Homo sapiens) (UniProt P35916); assay: Inhibition of FLT4 (unknown origin) 1 uM; conditions: not given

inhibition [%]	Structure (SMILES)
18.5	COc1ccc(CC(=O)Nc2ccc3[nH]c(-c4ccc(Cl)cc4)nc3c2)cc1

biological target: Hepatocyte growth factor receptor (Homo sapiens) (UniProt P08581); assay: Inhibition of MET (unknown origin) at 1 uM; conditions: not given

inhibition [%]	Structure (SMILES)
-3.6	COc1ccc(CC(=O)Nc2ccc3[nH]c(-c4ccc(Cl)cc4)nc3c2)cc1

test system: not listed separately; assay: Cytotoxicity against human LO2 cells assessed as reduction in cell viability at 10 uM relative to control; type: cell-based, L02; conditions: read-out: INH

Structure (SMILES)	cytotoxicity at 10 µM [%]
COc1ccc(CC(=O)Nc2ccc3[nH]c(-c4ccc(Cl)cc4)nc3c2)cc1	56.4

test system: Chorioallantoic membrane; assay: Antiangiogenic activity in chicken chorioallantoic membrane assessed as reduction in number of blood vessels at 0.1 nM per egg measured after 48 hrs by CAM assay relative to control; type: functional, cell membranes; conditions: Gallus gallus

Structure (SMILES)	inhibition [%]
COc1ccc(CC(=O)Nc2ccc3[nH]c(-c4ccc(Cl)cc4)nc3c2)cc1	28

test system: Chorioallantoic membrane; assay: Antiangiogenic activity in chicken chorioallantoic membrane assessed as reduction in number of blood vessels at 1 nM per egg measured after 48 hrs by CAM assay relative to control; type: functional, cell membranes; conditions: Gallus gallus

Structure (SMILES)	inhibition [%]
COc1ccc(CC(=O)Nc2ccc3[nH]c(-c4ccc(Cl)cc4)nc3c2)cc1	51

test system: Chorioallantoic membrane; assay: Antiangiogenic activity in chicken chorioallantoic membrane assessed as reduction in number of blood vessels at 10 nM per egg measured after 48 hrs by CAM assay relative to control; type: functional, cell membranes; conditions: Gallus gallus

Structure (SMILES)	inhibition [%]
COc1ccc(CC(=O)Nc2ccc3[nH]c(-c4ccc(Cl)cc4)nc3c2)cc1	79

test system: Chorioallantoic membrane; assay: Antiangiogenic activity in chicken chorioallantoic membrane assessed as reduction in number of blood vessels measured after 48 hrs by CAM assay; type: functional, cell membranes; conditions: Gallus gallus

Structure (SMILES)	inhibition
COc1ccc(CC(=O)Nc2ccc3[nH]c(-c4ccc(Cl)cc4)nc3c2)cc1	Dose-dependent effect

test system: HepG2; assay: Induction of apoptosis in human HepG2 cells assessed as apoptotic cells at 1 nM incubated for 24 hrs by dUTP-FITC/PI staining based flow cytometry (reference value: 3.3%); type: functional; conditions: not given

Structure (SMILES)	Activity [%]
COc1ccc(CC(=O)Nc2ccc3[nH]c(-c4ccc(Cl)cc4)nc3c2)cc1	13.7

test system: HepG2; assay: Induction of apoptosis in human HepG2 cells assessed as apoptotic cells at 10 nM incubated for 24 hrs by dUTP-FITC/PI staining based flow cytometry (reference value: 3.3%); type: functional; conditions: not given

Structure (SMILES)	Activity [%]
COc1ccc(CC(=O)Nc2ccc3[nH]c(-c4ccc(Cl)cc4)nc3c2)cc1	28.1

test system: HepG2; assay: Induction of apoptosis in human HepG2 cells assessed as necrotic cells at 1 nM incubated for 24 hrs by dUTP-FITC/PI staining based flow cytometry (reference value: 10.2%); type: functional; conditions: not given

Structure (SMILES)	Activity [%]
COc1ccc(CC(=O)Nc2ccc3[nH]c(-c4ccc(Cl)cc4)nc3c2)cc1	7.3

test system: HepG2; assay: Induction of apoptosis in human HepG2 cells assessed as necrotic cells at 10 nM incubated for 24 hrs by dUTP-FITC/PI staining based flow cytometry (reference value: 10.2%); type: functional; conditions: not given

Structure (SMILES)	Activity [%]
COc1ccc(CC(=O)Nc2ccc3[nH]c(-c4ccc(Cl)cc4)nc3c2)cc1	5.9

test system: HUVEC; assay: Induction of apoptosis in human HUVEC cells assessed as apoptotic cells at 1 nM incubated for 24 hrs by dUTP-FITC/PI staining based flow cytometry (reference value: 4.9%); type: functional; conditions: not given

Structure (SMILES)	Activity [%]
COc1ccc(CC(=O)Nc2ccc3[nH]c(-c4ccc(Cl)cc4)nc3c2)cc1	18.9

test system: HUVEC; assay: Induction of apoptosis in human HUVEC cells assessed as apoptotic cells at 10 nM incubated for 24 hrs by dUTP-FITC/PI staining based flow cytometry (reference value: 4.9%); type: functional; conditions: not given

Structure (SMILES)	Activity [%]
COc1ccc(CC(=O)Nc2ccc3[nH]c(-c4ccc(Cl)cc4)nc3c2)cc1	34.3

test system: HUVEC; assay: Induction of apoptosis in human HUVEC cells assessed as necrotic cells at 1 nM incubated for 24 hrs by dUTP-FITC/PI staining based flow cytometry (reference value: 6.9%); type: functional; conditions: not given

Structure (SMILES)	Activity [%]
COc1ccc(CC(=O)Nc2ccc3[nH]c(-c4ccc(Cl)cc4)nc3c2)cc1	6.9

test system: HUVEC; assay: Induction of apoptosis in human HUVEC cells assessed as necrotic cells at 10 nM incubated for 24 hrs by dUTP-FITC/PI staining based flow cytometry (reference value: 6.9%); type: functional; conditions: not given

Structure (SMILES)	Activity [%]
COc1ccc(CC(=O)Nc2ccc3[nH]c(-c4ccc(Cl)cc4)nc3c2)cc1	2.5

test system: HepG2; assay: Cell cycle arrest in human HepG2 cells assessed as accumulation at G0/G1 phase at 1 nM incuabted for 24 hrs by PI staining based flow cytometry (reference value: 47.9%); type: functional; conditions: not given

Structure (SMILES)	Activity [%]
COc1ccc(CC(=O)Nc2ccc3[nH]c(-c4ccc(Cl)cc4)nc3c2)cc1	55.7

test system: HepG2; assay: Cell cycle arrest in human HepG2 cells assessed as accumulation at G0/G1 phase at 10 nM incuabted for 24 hrs by PI staining based flow cytometry (reference value: 47.9%); type: functional; conditions: not given

Structure (SMILES)	Activity [%]
COc1ccc(CC(=O)Nc2ccc3[nH]c(-c4ccc(Cl)cc4)nc3c2)cc1	68

test system: HepG2; assay: Cell cycle arrest in human HepG2 cells assessed as accumulation at S phase at 1 nM incuabted for 24 hrs by PI staining based flow cytometry (reference value: 9.8%); type: functional; conditions: not given

Structure (SMILES)	Activity [%]
COc1ccc(CC(=O)Nc2ccc3[nH]c(-c4ccc(Cl)cc4)nc3c2)cc1	8.1

test system: HepG2; assay: Cell cycle arrest in human HepG2 cells assessed as accumulation at S phase at 10 nM incuabted for 24 hrs by PI staining based flow cytometry (reference value: 9.8%); type: functional; conditions: not given

Structure (SMILES)	Activity [%]
COc1ccc(CC(=O)Nc2ccc3[nH]c(-c4ccc(Cl)cc4)nc3c2)cc1	6.7

test system: HepG2; assay: Cell cycle arrest in human HepG2 cells assessed as accumulation at G2/M phase at 1 nM incuabted for 24 hrs by PI staining based flow cytometry (reference value: 42.3%); type: functional; conditions: not given

Structure (SMILES)	Activity [%]
COc1ccc(CC(=O)Nc2ccc3[nH]c(-c4ccc(Cl)cc4)nc3c2)cc1	36.2

test system: HepG2; assay: Cell cycle arrest in human HepG2 cells assessed as accumulation at G2/M phase at 10 nM incuabted for 24 hrs by PI staining based flow cytometry (reference value: 42.3%); type: functional; conditions: not given

Structure (SMILES)	Activity [%]
COc1ccc(CC(=O)Nc2ccc3[nH]c(-c4ccc(Cl)cc4)nc3c2)cc1	25.3

test system: HUVEC; assay: Cell cycle arrest in human HUVEC cells assessed as accumulation at G0/G1 phase at 1 nM incuabted for 24 hrs by PI staining based flow cytometry (reference value: 43.2%); type: functional; conditions: not given

Structure (SMILES)	Activity [%]
COc1ccc(CC(=O)Nc2ccc3[nH]c(-c4ccc(Cl)cc4)nc3c2)cc1	59.3

test system: HUVEC; assay: Cell cycle arrest in human HUVEC cells assessed as accumulation at G0/G1 phase at 10 nM incuabted for 24 hrs by PI staining based flow cytometry (reference value: 43.2%); type: functional; conditions: not given

Structure (SMILES)	Activity [%]
COc1ccc(CC(=O)Nc2ccc3[nH]c(-c4ccc(Cl)cc4)nc3c2)cc1	71.4

test system: HUVEC; assay: Cell cycle arrest in human HUVEC cells assessed as accumulation at S phase at 1 nM incuabted for 24 hrs by PI staining based flow cytometry (reference value: 10.4%); type: functional; conditions: not given

Structure (SMILES)	Activity [%]
COc1ccc(CC(=O)Nc2ccc3[nH]c(-c4ccc(Cl)cc4)nc3c2)cc1	8.9

test system: HUVEC; assay: Cell cycle arrest in human HUVEC cells assessed as accumulation at S phase at 10 nM incuabted for 24 hrs by PI staining based flow cytometry (reference value: 10.4%); type: functional; conditions: not given

Structure (SMILES)	Activity [%]
COc1ccc(CC(=O)Nc2ccc3[nH]c(-c4ccc(Cl)cc4)nc3c2)cc1	7.3

test system: HUVEC; assay: Cell cycle arrest in human HUVEC cells assessed as accumulation at G2/M phase at 1 nM incuabted for 24 hrs by PI staining based flow cytometry (reference value: 46.4%); type: functional; conditions: not given

Structure (SMILES)	Activity [%]
COc1ccc(CC(=O)Nc2ccc3[nH]c(-c4ccc(Cl)cc4)nc3c2)cc1	31.8

test system: HUVEC; assay: Cell cycle arrest in human HUVEC cells assessed as accumulation at G2/M phase at 10 nM incuabted for 24 hrs by PI staining based flow cytometry (reference value: 46.4%); type: functional; conditions: not given

Structure (SMILES)	Activity [%]
COc1ccc(CC(=O)Nc2ccc3[nH]c(-c4ccc(Cl)cc4)nc3c2)cc1	21.3

test system: HepG2; assay: Cell cycle arrest in human HepG2 cells assessed as accumulation at G0/G1 phase incuabted for 24 hrs by PI staining based flow cytometry; type: functional; conditions: not given

Structure (SMILES)	Activity
COc1ccc(CC(=O)Nc2ccc3[nH]c(-c4ccc(Cl)cc4)nc3c2)cc1	Dose-dependent effect

test system: HUVEC; assay: Cell cycle arrest in human HUVEC cells assessed as accumulation at G0/G1 phase incuabted for 24 hrs by PI staining based flow cytometry; type: functional; conditions: not given

Structure (SMILES)	Activity
COc1ccc(CC(=O)Nc2ccc3[nH]c(-c4ccc(Cl)cc4)nc3c2)cc1	Dose-dependent effect

biological target: T1, Vascular endothelial growth factor receptor 2; assay: Inhibition of VEGFR2 in human HUVEC cells assessed as reduction in phosphorylation of VEGFR2 at 2 to 4 uM incubated for 24 hrs by Western blot analysis; type: cell-based; conditions: not given

inhibition	Structure (SMILES)
Active	COc1ccc(CC(=O)Nc2ccc3[nH]c(-c4ccc(Cl)cc4)nc3c2)cc1

biological target: T1, Vascular endothelial growth factor receptor 2; conditions: at 1 µM
Description: Inhibition of VEGFR2 (unknown origin) using Poly (Glu, Tyr) 4:1 as substrate at 1 uM preincubated with substrate followed by enzyme challenge for 1 hr by ELISA relative to control

inhibition [%]	Structure (SMILES)
89.3	COc1cc(CC(=O)Nc2ccc3oc(-c4ccccc4)nc3c2)cc(OC)c1OC
103	COc1ccc(CC(=O)Nc2ccc3[nH]c(-c4ccc(Cl)cc4)nc3c2)cc1
